From PMC11050823, “The Cyclic Imine Core Common to the Marine Macrocyclic Toxins Is Sufficient to Dictate Nicotinic Acetylcholine Receptor Antagonism” (Marine Drugs, 2024)
Entries after “also recorded” stand apart in the source; their conditions may differ. Where two headings read alike, the source gives them in different places. Marks after values point to notes of the source that are not given here.

Assays:
[1] = molecular target: T1, A-AChBP (Aplysia californica, UniProt Q8WSF8); assay: Scintillation proximity assay, competition against [3H]methyllycaconitine binding to A-AChBP; set-up: made in house; host or cells: stably transfected HEK293S-GnTI- cells
Description: (§1) Equilibrium dissociation constants were determined either from ratios (Kd/(koff/kon)) of rate constants determined using multiple kinetic means (kon, koff, koff/GAL) or directly from stopped-flow measurements (Kd/SFeq, Kd/SPAeq) (see Experimental Procedures).
(§2) The procedures for stable expression and purification of A- and L-AChBPs are described in Appendix D. Rate constants for association (kon) and dissociation (koff) were determined by multiple kinetic means, largely as previously described. Measurement of kon and koff values entailed the direct admixture of reactants and monitoring the quenching of AChBP native Trp fluorescence. Individual rate constants were determined from linear regression of the experimental mono-exponential decay of Trp fluorescence intensity (kobs) using the linear “approach-to-equilibrium” relationship kobs = kon[spiroimine] + koff (Equation (3)). Additional measurements of koff (koff/GAL) employed stopped-flow measurement of the rate of occupation of free AChBP binding sites by a competing ligand (gallamine, used in large excess relative to its Kd) to form a non-quenching gallamine-AChBP complex. Equilibrium dissociation constants were determined either from the ratios of rate constants (Kd/(koff/kon)), or from stopped-flow measurements of the rates of gallamine or epibatidine binding to pre-equilibrated spiroimine-AChBP complexes formed using increasing spiroimine concentrations (Kd/SFeq), or by the scintillation proximity assay (SPA) where spiroimine competition against the binding of [^3H]epibatidine (to L-AChBP) or [^3H]methyllycaconitine (to A-AChBP) was monitored at equilibrium (Kd/SPAeq). […] The time course of [^3H]ligand binding was monitored over several hours.
(§3) A- and L-AChBP, flanked with an N-terminal FLAG epitope with residues numbered (-8)[…](0), were expressed as soluble, exported proteins using synthetic cDNA and stably-transfected HEK293S-GnTI^− cells selected for G418 resistance, and cultured in Dulbecco’s modified Eagle’s medium (MediaTech CellGro, Albany, NY, USA) containing fetal bovine serum (FBS) 2% (v/v). […]
Target sequence in this assay (Q8WSF8 entry or part of it): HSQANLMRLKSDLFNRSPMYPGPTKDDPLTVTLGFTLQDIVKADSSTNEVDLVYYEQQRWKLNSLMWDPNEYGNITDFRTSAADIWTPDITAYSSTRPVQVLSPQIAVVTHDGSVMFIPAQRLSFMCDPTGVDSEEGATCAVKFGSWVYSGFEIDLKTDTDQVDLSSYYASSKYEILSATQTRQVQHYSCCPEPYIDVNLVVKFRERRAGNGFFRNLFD

[2] = molecular target: T2, L-AChBP (Lymnaea stagnalis, UniProt P58154); assay: Stopped-flow Trp fluorescence kinetic and equilibrium binding to purified L-AChBP; conditions: for Kd / kon / koff: L-AChBP
T2 construct: made in house; host or cells: stably transfected HEK293S-GnTI- cells
Description: as §1, §2
(§4) A- and L-AChBP, flanked with an N-terminal FLAG epitope with residues numbered (-8)[…](0), were expressed as soluble, exported proteins using synthetic cDNA and stably-transfected HEK293S-GnTI^− cells selected for G418 resistance, and cultured in Dulbecco’s modified Eagle’s medium (MediaTech CellGro, Albany, NY, USA) containing fetal bovine serum (FBS) 2% (v/v). The conditioned medium was collected every 1–3 days for up to 4 weeks, supplemented with NaN3 0.02% (w/v) and stored at 4 °C. AChBPs were purified on immobilized anti-FLAG M2 antibody (Sigma-Aldrich) with elution using FLAG peptide 100 μg/mL in TRIS-HCl 50 mM pH 7.4, NaCl 150 mM, NaN3 0.02% (w/v). Purified proteins were dialyzed against the same buffer, concentrated by ultrafiltration, filtered on a 0.22 µm membrane, and stored on ice at 4 °C.

[3] = molecular target: T3, human neuronal α7 nAChR (Homo sapiens, UniProt P36544); assay: Automated TEVC recording of ACh-evoked currents in Xenopus oocytes expressing human α7 nAChR; type: cell-based; conditions: for Hill Slope: concentration-inhibition curve, ACh 100 µM; for Hill Slope / IC50: 95% confidence interval in parentheses; for IC50: inhibition of ACh-evoked current, ACh 100 µM (EC50), −60 mV
T3 construct: expressed in transfected cells; host or cells: Xenopus laevis oocytes
Excerpt: (§5) Functional analysis of the (±)-4 racemate and (+)-4 R and (−)-4 S enantiomers used either manual or automated two-electrode voltage-clamp (TEVC) recordings on Xenopus laevis oocytes at −60 mV holding membrane potential. The oocytes were either micro-transplanted with Torpedo α1_2βγδ-enriched electrocyte membranes or transfected with human α7 or α4β2-encoding cDNAs. When applied alone (see Experimental Procedures), none of the three spiroimines induced nAChR channel opening, thereby discarding any agonistic activity toward these nAChR subtypes. Instead, when applied together with ACh at its EC50 concentration for each nAChR subtype, all three spiroimines clearly behaved as nicotinic antagonists, whose potency depended on the receptor subtype examined (Figure 2; Table 1).
(§6) The sources for live animals and biological materials, the procedures for nAChR microtransplantation and expression in oocytes, and the procedures for manual (α1_2βγδ nAChR) and automated (α7 and α4β2 nAChRs) TEVC recording are detailed in Appendix C. […] Then, the oocyte was perfused for 45 s with the tested spiroimine at a given concentration, immediately followed by the co-application of ACh and the spiroimine at the same concentrations and times as indicated above. The oocyte was washed with Ringer’s solution, and then recovery of the ACh-evoked current was recorded.
(§7) The concentration–inhibition curves were analyzed as previously detailed using the equation I = Imax [L]^nH/(EC50^nH + [L]^nH) (Equation (1)), where I is the measured agonist-evoked current, [L] is the agonist concentration, EC50 is the agonist concentration that evoked half the maximal current (I^max), and nH is the Hill coefficient. For antagonist inhibition, current (I) values were normalized to the I^max value recorded from the same oocyte to yield the fractional (%) response data. IC50 values were established from the concentration–response curves by fitting to the equation F = 1/[1 + ([X]/IC50)^nH] (Equation (2)), where F is the fractional response obtained in the presence of the inhibitor at concentration [X], and IC50 is the inhibitor concentration reducing the ACh-evoked amplitude by half. Data analysis was performed without constraints as Log[spiroimine] versus response (three parameters), with a Hill slope ~1. Statistical significance of differences between the control and test values was assessed using either the two-tailed Student’s “t” test or the Kolmogorov–Smirnov two-sample test and p < 0.05.
(§8) Torpedo membranes containing α1_2βγδ nAChR were microtransplanted into the oocyte cytoplasm by microinjecting a membrane suspension (50 nL at 2.5 µg/µL, i.e., 125 ng total protein, in 5 mM glycine) with an electronic micro-injector (Nanoliter2000 Micro4 Controller, World Precision Instruments Inc., Hertfordshire, UK) mounted on a microscope. Human α7 and α4β2 nAChRs were expressed through microinjection, into the oocyte nucleus, of α7 mRNA and of a 1:1 (w/w) mixture of α4 and β2 cDNAs (a ratio favoring expression of the α4_3β2_2 population over the α4_2β2_3 population) (50 nL at 1 µg/µL) in a pRc/CMV expression vector (Invitrogen). Oocytes were maintained at 18 °C and TEVC recordings were performed 1–4 days later in a room with controlled temperature (20 °C).
(§9) Automated TEVC on α7 and α4β2 nAChR oocytes was performed using a HiClamp system (Multi Channel Systems, GmbH., Reutlingen, Germany). Oocytes free of follicular cells were transferred from the 96-wells of the oocyte microplate to a recording basket carrying the reference bath electrode. Oocytes were automatically impaled and clamped at a holding potential of −60 mV using borosilicate glass microelectrodes of 0.5–5 MΩ tip resistances, filled with a 1:1 (v/v) mixture of KCl 1 M and KAc 1 M. The clamped oocytes were exposed twice or thrice to ACh by incubation into a well containing ACh (at the EC50 for the assayed nAChR subtype) to obtain a control IACh peak amplitude. […]

[4] = molecular target: Torpedo muscle-type α1_2βγδ nAChR (Torpedo marmorata, UniProt P02711+Q6S3H8+Q6S3H9); assay: Manual TEVC recording of ACh-evoked currents in Xenopus oocytes micro-transplanted with Torpedo electrocyte membranes; type: cell-based; conditions: for Hill Slope: concentration-inhibition curve, ACh 25 µM
Excerpt: as §5, §6, §7, §8
(§10) Manual TEVC on α1_2βγδ nAChR oocytes was carried out using an OC-725B amplifier (Warner Instrument Corp., Hamden, CT, USA). Voltage and current borosilicate glass microelectrodes were filled with KCl 3 M and had 0.5–1.5 MΩ tip resistances. For data acquisition and recording, a pCLAMP-9/Digidata-1322A system (Molecular Devices, San Jose, CA, USA) was used. The oocyte recording chamber of 300 μL was superfused at a high rate (8–12 mL.min^−1) with a modified oocyte Ringer’s solution made of HEPES 5 mM pH 7.4, NaCl 100 mM, KCl 2.8 mM, and BaCl2 0.3 mM, where BaCl2 substitution to the original CaCl2 prevents secondary activation of a Ca^2+-dependent Cl^− current. […]

[5] = molecular target: T4, human neuronal α4β2 nAChR (Homo sapiens, UniProt P17787+P43681); assay: Automated TEVC recording of ACh-evoked currents in Xenopus oocytes expressing human α4β2 nAChR; type: cell-based; conditions: for recovery of the ACh-evoked current after washout of bound spiroimine: 10 µM spiroimine, wash; for Hill Slope: concentration-inhibition curve, ACh 150 µM; for Hill Slope / IC50: 95% confidence interval in parentheses; for IC50: inhibition of ACh-evoked current, ACh 150 µM (EC50), −60 mV
T4 construct: expressed in transfected cells; host or cells: Xenopus laevis oocytes; cDNAs in pRc/CMV vector
Excerpt: as §5, §6, §7, §8, §9

[6] = molecular target: T2, L-AChBP; assay: Scintillation proximity assay, competition against [3H]epibatidine binding to L-AChBP
Description: as §1, §2, §3

[7] = molecular target: T1, A-AChBP; assay: Stopped-flow Trp fluorescence kinetic and equilibrium binding to purified A-AChBP; conditions: for kon / koff / Kd: A-AChBP
Description: as §1, §2, §4
Target sequence in this assay (Q8WSF8 entry or part of it): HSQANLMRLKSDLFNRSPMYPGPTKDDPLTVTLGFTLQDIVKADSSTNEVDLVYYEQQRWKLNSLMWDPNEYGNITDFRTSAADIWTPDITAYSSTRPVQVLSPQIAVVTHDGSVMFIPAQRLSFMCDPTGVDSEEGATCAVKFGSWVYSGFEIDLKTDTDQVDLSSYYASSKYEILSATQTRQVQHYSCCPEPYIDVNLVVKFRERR

[8] = tested on: Torpedo muscle-type α1_2βγδ nAChR; assay: Manual TEVC recording of ACh-evoked currents in Xenopus oocytes micro-transplanted with Torpedo electrocyte membranes; type: cell-based, Torpedo marmorata; conditions: from IC50 values
Excerpt: as §5, §6, §7, §8, §10

[9] = molecular target: nicotinic acetylcholine receptors; set-up: method as in PMID 35049904; conditions: cited from earlier work
[10] = calculated from the rate constants, read-out: Kd/(koff/kon)
[11] = quenching of native Trp fluorescence
[12] = quenching of native Trp fluorescence, read-out: koff (converted)
[13] = stopped-flow on pre-equilibrated complexes, single experiment in triplicate, read-out: Kd/SFeq
[14] = stopped-flow with competing gallamine in large excess, read-out: koff/GAL (converted)
[15] = Kd/(koff/kon), calculated from the rate constants
[16] = Kd/SFeq, stopped-flow on pre-equilibrated complexes, single experiment in triplicate
[17] = read-out: Kd values (range of magnitude)

T3 sequence (P36544 23-502): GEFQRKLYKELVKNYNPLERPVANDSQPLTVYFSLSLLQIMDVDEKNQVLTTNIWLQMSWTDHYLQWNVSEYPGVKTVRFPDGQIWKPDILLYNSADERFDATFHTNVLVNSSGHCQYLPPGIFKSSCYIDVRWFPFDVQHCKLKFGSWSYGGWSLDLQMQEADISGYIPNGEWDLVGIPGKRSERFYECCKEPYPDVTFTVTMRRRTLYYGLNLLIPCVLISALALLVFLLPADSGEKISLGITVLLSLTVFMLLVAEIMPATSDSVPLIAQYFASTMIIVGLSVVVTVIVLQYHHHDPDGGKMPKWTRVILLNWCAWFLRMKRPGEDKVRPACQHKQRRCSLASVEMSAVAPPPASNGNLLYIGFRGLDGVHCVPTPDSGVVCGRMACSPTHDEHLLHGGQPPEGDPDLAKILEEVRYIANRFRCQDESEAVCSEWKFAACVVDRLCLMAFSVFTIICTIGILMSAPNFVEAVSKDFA
Torpedo muscle-type α1_2βγδ nAChR (Torpedo marmorata, UniProt P02711+Q6S3H8+Q6S3H9), sequence (P02711 25-461): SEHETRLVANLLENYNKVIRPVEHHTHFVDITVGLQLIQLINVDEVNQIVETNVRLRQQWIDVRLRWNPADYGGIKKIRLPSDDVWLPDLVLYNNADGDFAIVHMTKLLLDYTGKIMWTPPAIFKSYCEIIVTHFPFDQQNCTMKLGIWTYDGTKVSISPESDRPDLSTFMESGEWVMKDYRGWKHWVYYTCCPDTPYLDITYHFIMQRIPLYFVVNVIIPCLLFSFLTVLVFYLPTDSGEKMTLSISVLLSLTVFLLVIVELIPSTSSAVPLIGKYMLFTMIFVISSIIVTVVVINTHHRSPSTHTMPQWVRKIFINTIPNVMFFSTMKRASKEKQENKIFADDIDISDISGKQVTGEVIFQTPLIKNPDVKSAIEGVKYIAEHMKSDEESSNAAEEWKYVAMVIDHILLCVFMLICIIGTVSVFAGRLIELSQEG
Torpedo muscle-type α1_2βγδ nAChR (Torpedo marmorata, UniProt P02711+Q6S3H8+Q6S3H9), sequence (Q6S3H9 18-505): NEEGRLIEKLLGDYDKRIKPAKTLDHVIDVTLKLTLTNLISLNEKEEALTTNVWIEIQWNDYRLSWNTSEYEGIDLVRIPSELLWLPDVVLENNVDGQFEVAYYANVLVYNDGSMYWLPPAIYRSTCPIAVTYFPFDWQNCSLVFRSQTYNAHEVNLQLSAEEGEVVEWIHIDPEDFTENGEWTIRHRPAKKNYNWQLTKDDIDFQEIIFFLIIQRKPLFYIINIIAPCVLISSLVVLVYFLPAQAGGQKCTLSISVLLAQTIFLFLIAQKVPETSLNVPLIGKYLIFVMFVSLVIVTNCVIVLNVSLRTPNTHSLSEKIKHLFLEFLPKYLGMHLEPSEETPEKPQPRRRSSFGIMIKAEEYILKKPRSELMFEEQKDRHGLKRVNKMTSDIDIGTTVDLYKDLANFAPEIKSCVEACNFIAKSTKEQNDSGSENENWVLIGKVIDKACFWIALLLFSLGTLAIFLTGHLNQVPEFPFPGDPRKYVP
Torpedo muscle-type α1_2βγδ nAChR (Torpedo marmorata, UniProt P02711+Q6S3H8+Q6S3H9), sequence (Q6S3H8 22-522): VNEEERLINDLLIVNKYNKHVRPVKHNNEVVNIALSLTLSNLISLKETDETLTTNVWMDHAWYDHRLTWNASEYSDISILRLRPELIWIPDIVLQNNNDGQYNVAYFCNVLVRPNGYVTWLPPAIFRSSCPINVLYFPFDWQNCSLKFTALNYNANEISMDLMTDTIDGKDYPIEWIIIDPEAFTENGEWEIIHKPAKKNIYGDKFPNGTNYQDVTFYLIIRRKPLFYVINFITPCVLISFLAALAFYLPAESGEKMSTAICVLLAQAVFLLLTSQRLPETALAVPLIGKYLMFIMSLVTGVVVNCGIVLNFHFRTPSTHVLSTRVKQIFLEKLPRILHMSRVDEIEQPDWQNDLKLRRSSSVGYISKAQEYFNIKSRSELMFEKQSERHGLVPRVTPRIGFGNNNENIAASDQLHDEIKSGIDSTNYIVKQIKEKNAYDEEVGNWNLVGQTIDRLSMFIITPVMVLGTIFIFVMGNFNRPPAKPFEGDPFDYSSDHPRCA
Torpedo muscle-type α1_2βγδ nAChR (Torpedo marmorata, UniProt P02711+Q6S3H8+Q6S3H9), sequence (Q6S3I0 25-493 partner): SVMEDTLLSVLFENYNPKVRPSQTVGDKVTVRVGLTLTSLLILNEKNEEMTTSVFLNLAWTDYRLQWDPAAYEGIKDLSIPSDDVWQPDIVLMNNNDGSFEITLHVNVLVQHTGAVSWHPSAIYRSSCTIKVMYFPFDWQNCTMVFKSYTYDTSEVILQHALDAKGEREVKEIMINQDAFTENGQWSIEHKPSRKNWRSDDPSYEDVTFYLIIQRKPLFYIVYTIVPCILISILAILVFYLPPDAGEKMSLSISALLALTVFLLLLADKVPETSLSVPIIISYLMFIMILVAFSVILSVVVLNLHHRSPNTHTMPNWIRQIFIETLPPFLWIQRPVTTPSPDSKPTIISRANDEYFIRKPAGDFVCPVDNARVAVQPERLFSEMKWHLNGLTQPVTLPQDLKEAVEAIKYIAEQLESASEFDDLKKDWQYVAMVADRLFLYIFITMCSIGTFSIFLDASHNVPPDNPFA
T4 sequence (P43681 29-627 limits assumed): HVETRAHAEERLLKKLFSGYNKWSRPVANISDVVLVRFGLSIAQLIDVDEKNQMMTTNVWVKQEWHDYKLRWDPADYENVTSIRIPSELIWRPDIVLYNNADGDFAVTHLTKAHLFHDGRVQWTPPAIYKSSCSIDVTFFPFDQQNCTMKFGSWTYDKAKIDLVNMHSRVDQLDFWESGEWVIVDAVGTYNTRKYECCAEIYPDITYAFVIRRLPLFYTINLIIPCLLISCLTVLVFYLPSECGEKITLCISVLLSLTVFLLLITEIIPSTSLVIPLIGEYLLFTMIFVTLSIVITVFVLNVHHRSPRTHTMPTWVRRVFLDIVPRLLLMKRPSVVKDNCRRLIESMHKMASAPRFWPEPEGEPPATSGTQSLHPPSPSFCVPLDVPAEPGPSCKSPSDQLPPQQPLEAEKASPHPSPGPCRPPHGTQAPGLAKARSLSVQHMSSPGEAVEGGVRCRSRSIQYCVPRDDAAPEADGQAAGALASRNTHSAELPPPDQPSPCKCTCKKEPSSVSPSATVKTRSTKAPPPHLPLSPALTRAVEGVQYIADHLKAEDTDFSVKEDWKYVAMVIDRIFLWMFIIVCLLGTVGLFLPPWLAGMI
T4 sequence (P17787 26-502): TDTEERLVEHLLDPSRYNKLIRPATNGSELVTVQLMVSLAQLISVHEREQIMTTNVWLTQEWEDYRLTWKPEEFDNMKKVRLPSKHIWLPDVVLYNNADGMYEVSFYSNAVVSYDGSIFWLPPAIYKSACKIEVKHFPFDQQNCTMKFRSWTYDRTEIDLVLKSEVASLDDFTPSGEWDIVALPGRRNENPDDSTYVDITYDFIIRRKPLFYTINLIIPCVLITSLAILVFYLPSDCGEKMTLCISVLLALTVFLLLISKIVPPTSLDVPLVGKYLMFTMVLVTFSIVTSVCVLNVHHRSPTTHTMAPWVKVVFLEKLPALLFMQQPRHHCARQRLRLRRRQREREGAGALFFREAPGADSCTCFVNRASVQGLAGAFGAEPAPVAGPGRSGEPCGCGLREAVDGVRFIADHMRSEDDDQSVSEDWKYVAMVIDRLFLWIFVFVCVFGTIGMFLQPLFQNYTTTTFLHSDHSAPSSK
T2 sequence (P58154 20-229): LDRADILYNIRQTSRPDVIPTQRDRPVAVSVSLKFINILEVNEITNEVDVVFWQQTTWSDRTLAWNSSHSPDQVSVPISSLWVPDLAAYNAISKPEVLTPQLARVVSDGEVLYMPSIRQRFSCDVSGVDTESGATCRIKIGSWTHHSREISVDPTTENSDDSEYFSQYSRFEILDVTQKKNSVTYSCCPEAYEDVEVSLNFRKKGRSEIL

SMILES	Kd [1]	Kd [2, 10]	kon [2, 11]	koff [2, 12]	Kd [2, 13]	koff [2, 14]	Hill Slope [3]	IC50 [3]	Hill Slope [4]	recovery of the ACh-evoked current after washout of bound spiroimine [5]	Hill Slope [5]	IC50 [5]	Kd [6]	kon [7, 11]	koff [7, 12]	koff [7, 14]	Kd [7, 15]	Kd [7, 16]	Kd [2, 17]	other results
CC1=NCCCC12CCCCC21OCCO1 (racemic) [Racemic (±)-4, 7-methyl-1,4-dioxa-8-azadispiro[4.0.5.4]pentadec-7-ene]	2400 ± 1500 nM	1700 nM	6e+07 M⁻¹ s⁻¹	103 s⁻¹	320 nM	112 s⁻¹	0.61 (0.47–0.75) ^b	2110 nM	~1 ^b	fast reversibility; also recorded: fast and complete	1.08 (0.86–1.29) ^b	6960 nM	2600 ± 1900 nM	1.05e+08 M⁻¹ s⁻¹	300 s⁻¹	250 s⁻¹	2900 nM	4200 nM	–	Kd ([2]; stopped-flow on pre-equilibrated complexes, biphasic curve, read-out: Kd/SFeq, second constant from a biphasic curve): 15000 nM; recovery of the ACh-evoked current after washout of bound spiroimine ([4]; 10 µM spiroimine, washout with ACh, desensitized state): full recovery of the nicotinic current
CC1=NCCC[C@]12CCCCC21OCCO1 [Spiroimine (+)-4 R, 7-methyl-1,4-dioxa-8-azadispiro[4.0.5.4]pentadec-7-ene]	2300 ± 400 nM	–	–	–	12000 nM	–	0.78 (0.54–1.01) ^b	4880 nM	~1 ^b	fast and complete	0.83 (0.15–1.52) ^b	9310 nM	12000 ± 3000 nM	1.23e+08 M⁻¹ s⁻¹	267 s⁻¹	233 s⁻¹	2200 nM	3100 nM	~10000 nM	higher affinity compared to enantiomer (−)-4 S ([2]; L-AChBP (text: the two AChBPs)): ca. 2 fold; higher affinity compared with the (−)-4 S enantiomer ([3]; α7 nAChR, from Table 1): ca. 5 fold; selectivity for the α1_2βγδ nAChR compared with the α4β2 subtype [8]: 25 fold; selectivity for the α1_2βγδ nAChR compared with the α7 subtype [8]: 13 fold; agonistic activity (nAChR channel opening) ([5]; spiroimine applied alone): elicited no inward current per se; higher affinity compared with the (−)-4 S enantiomer ([5]; α4β2 nAChR, from Table 1): ca. 5 fold; higher affinity compared to enantiomer (−)-4 S ([7]; A-AChBP (text: the two AChBPs)): ca. 2 fold
CC1=NCCC[C@@]12CCCCC21OCCO1 [Spiroimine (−)-4 S, 7-methyl-1,4-dioxa-8-azadispiro[4.0.5.4]pentadec-7-ene]	2400 ± 500 nM	410 nM	1.3e+08 M⁻¹ s⁻¹	53.3 s⁻¹	320 nM	103 s⁻¹	0.58 (0.44–0.72) ^b	1450 nM	~1 ^b	–	0.53 (0.32–0.74) ^b	1410 nM	3400 nM	1.02e+08 M⁻¹ s⁻¹	433 s⁻¹	400 s⁻¹	4300 nM	5400 nM	~100 nM	recovery of the ACh-evoked current after washout of bound spiroimine ([3]; 10 µM spiroimine, wash with Ringer's solution): fast and complete
CN(C)C1CSSC1 [nereistoxin, N,N-dimethyl-1,2-dithiolan-4-amine]	–	–	–	–	–	–	–	–	–	–	–	–	–	–	–	–	–	–	–	IC50 values as nicotinic antagonist [9]: sub-millimolar
